Data as given in paper PMC9775191, “A Subset Screen of the Compounds Australia Scaffold Library Identifies 7-Acylaminodibenzoxazepinones as Potent and Selective Hits for Anti-Giardia Drug Discovery” (Biomedicines, 2022).
Where two headings read alike, the source gives them in different places.

Tests used:
Giardia infections = settings: cited from earlier work; for clinical failure rates: 5-nitroimidazoles
[1] = test system: G. duodenalis BRIS/91/HEPU/1279; test: Giardia dose response assay, assemblage B; format: cell-based, Giardia duodenalis
Method in brief: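 Assemblage B trophozoites (BRIS/91/HEPU/1279, 1.5 × 10^4 parasites/well) faced 8–12-point doubling dilutions in duplicate, incubated 48 h at 37 °C under 3% O2, 5% CO2 in N2. Parasites were imaged and counted at 24 and 48 h. Growth inhibition was taken versus vehicle controls minus background, with IC50 by log-linear interpolation.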

BRIS/91/HEPU/1279 = test: Combination studies (isobolograms); format: cell-based, Giardia duodenalis; settings: 24 h
Procedure: The activity of each combination was assessed against BRIS/91/HEPU/1279. A total of 14, 8-point dose–response assays were performed with each combination in triplicate on at least two occasions in 96-well microtiter plates (1.5x10^4 BRIS/91/HEPU/1279 trophozoites per well). Plates were incubated in chambers gassed with 3% O2, 5% CO2 in N2 at 37 °C for 24 h before parasite growth was assessed by imaging. Media and vehicle controls were included on each plate. […] Isoboles were fitted using the standard hyperbolic function defined by the parameter I as previously described, where Positive values of I indicate synergy, negative values indicate antagonism and addition occurs when I equals 0. The significance of the difference of I from zero was assessed with Student’s t test.

[2] = test system: Neonatal foreskin fibroblast (NFF) cells; test: Mammalian cell cytotoxicity assay (sulforhodamine B); format: cell-based, human; settings: for SI (48h Gd): Table S2, NFF vs 48 h Giardia IC50; for inhibition at 20 µM: ±SD
Method in brief: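 Cytotoxicity against neonatal foreskin fibroblasts was read by sulforhodamine B staining, with media-only, untreated, DMSO-vehicle and chloroquine controls. Dose–response started at 100 µM. Selectivity index = NFF IC50 divided by G. duodenalis BRIS/91/HEPU/1279 IC50.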

[3] = test system: Escherichia coli (ATCC 25922); test: Anti-bacterial activity assay; format: cell-based; settings: for inhibition at 50 µM: Escherichia coli, ATCC25922, 50 µM, read-out: Bacterial Inhibition E. coli
Method in brief: (§1)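 Compounds tested once at 50 µM in duplicate against mid-log cultures at 5 × 10^5 CFU/mL, incubated 18 h at 37 °C without shaking. Growth read by absorbance at 600 nm; percentage inhibition calculated relative to bacteria-only wells. Vancomycin (Gram-positive) and colistin (Gram-negative) served as plate controls.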

BRIS/87/HEPU/713 = test: Giardia dose response assay, assemblage A; format: cell-based; settings: Giardia duodenalis
Procedure: (§2) In these assays, compounds were serially diluted (8–12-point doubling dilutions in technical duplicate) in DMSO control media, with all test wells inoculated with parasites (1.5 × 10^4 parasites for BRIS/91/HEPU/1279 and BRIS/91/HEPU/1279m1, or 3 × 10^3 parasites for BRIS/87/HEPU/713). Albendazole (positive control) plates were run with each experiment. All plates were sealed in culture chambers and gassed with 3% O2, 5% CO2 in N2 and incubated at 37 °C for 48 h, with parasites imaged and enumerated at 24 and 48 h. Growth inhibition was calculated as a percentage relative to vehicle controls minus any background as described above and IC50 values were determined using log-linear interpolation as previously described. […] Statistical comparison of IC50 values when required were performed using Student’s t-test.

[4] = test system: G. duodenalis BRIS/91/HEPU/1279; test: Primary Giardia screen at 10 µM (live-cell imaging, automated counting); format: cell-based, Giardia duodenalis; settings: for inhibition at 10 µM: Giardia duodenalis
Method in brief: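 Singlicate, 10 μM final, 0.2% DMSO; sealed chambers, 3% O2/5% CO2/N2. Counts by live-cell imaging at 24 h and 48 h. % growth vs vehicle, media background subtracted; Z' per plate.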

BRIS/91/HEPU/1279m1 = test: Giardia dose response assay, metronidazole resistant line; format: cell-based; settings: Giardia duodenalis
Procedure: as §2

[5] = In vivo tolerability assessment
Procedure: In brief, separate groups of three mice were administered single, increasing doses of compound via oral gavage to examine tolerability. […] After a week of observation, mice in each group were euthanized and samples collected for pathology assessment. The highest dose assessed was 50 mg/kg. To further assess the safety of SN00797640, this highest dose was also administered to a final group of three mice, daily for three days.

[6] = test system: Acinetobacter baumannii (ATCC 19606); test: Anti-bacterial activity assay; format: cell-based; settings: ATCC19606, 50 µM
Method in brief: as §1

[7] = test system: methicillin resistant Staphylococcus aureus (ATCC 43300); test: Anti-bacterial activity assay; format: cell-based; settings: Staphylococcus aureus, ATCC43300, 50 µM; read-out: Bacterial Inhibition S. aureus
Method in brief: as §1

[8] = test system: Klebsiella pneumoniae (ATCC 700603); test: Anti-bacterial activity assay; format: cell-based; settings: ATCC700603, 50 µM, read-out: Bacterial Inhibition K. pneumoniae
Method in brief: as §1

[9] = Giardia duodenalis, 24 h, read-out: G. duodenalis IC50 24h, Table S2, 24 h, ±SD, max 10 µM
[10] = 24 h, first singlicate assay, read-out: % Inhibition n=1 24h
[11] = 24 h, re-assessment, read-out: % Inhibition n=2 24h
[12] = 24 h, read-out: Average % Inhibition 24h
[13] = 48 h, first singlicate assay, read-out: % Inhibition n=1 48h
[14] = 48 h, re-assessment, read-out: % Inhibition n=2 48h
[15] = 48 h, read-out: Average % Inhibition 48h
[16] = Giardia duodenalis, 48 h, Table S2, 48 h, ±SD, max 10 µM, read-out: G. duodenalis IC50 48h

SMILES | IC50 [1, 9] | SI (48h Gd) [2] | inhibition at 50 µM [3] | inhibition at 10 µM [4, 10] | inhibition at 10 µM [4, 11] | inhibition at 10 µM [4, 12] | inhibition at 10 µM [4, 13] | inhibition at 10 µM [4, 14] | inhibition at 10 µM [4, 15] | IC50 [1, 16] | inhibition at 20 µM ([2]; Homo sapiens, NFF) | inhibition at 50 µM [6] | inhibition at 50 µM [7] | inhibition at 50 µM [8] | also measured
CCS(=O)(=O)CCn1c([N+](=O)[O-])cnc1C [tinidazole] | – | – | – | – | – | – | – | – | – | – | – | – | – | – | clinical failure rates (Giardia infections): 40–70%
Cc1ccc(C(=O)Nc2ccc3c(c2)N(C)C(=O)c2ccccc2O3)cc1 [SN00797640] | 380 ± 50 nM | > 55 | 3.64% | 97.5% | 83.1% | 90.3% | 96.3% | 97.2% | 96.8% | – | – | – | – | – | fold more potent than metronidazole ([1]; 48 h IC50): > 10 fold; IC50 ([1]; Giardia duodenalis, 48 h, BRIS/91/HEPU/1279, 48 h, mean ± SD, read-out: IC50 Giardia (48 h)): 180 nM; IC50 ([1]; Giardia duodenalis, 48 h, BRIS/91/HEPU/1279, 48 h, read-out: 48 h IC50): 181 nM; interaction parameter I (BRIS/91/HEPU/1279; combined with albendazole, synergistic): 4.7; interaction parameter I (BRIS/91/HEPU/1279; combined with metronidazole, additive): −0.3; Bacterial Inhibition E. coli ([3]; 50 µM): < 5%; IC50 (BRIS/87/HEPU/713; 48 h, read-out: 48 h IC50): 115 ± 30 nM; IC50 (BRIS/87/HEPU/713; read-out: 24 h IC50, 24 h): 164 ± 11 nM; Average % Inhibition 48h ([4]; 48 h): > 90%; IC50 (BRIS/91/HEPU/1279m1; 24 h, read-out: 24 h IC50): 160 ± 27 nM; IC50 (BRIS/91/HEPU/1279m1; 48 h, read-out: 48 h IC50): 124 ± 3 nM; tolerability ([5]; oral gavage, up to 50 mg/kg daily for three consecutive days): well tolerated with no adverse reactions detected; histological analysis of liver and kidney samples ([5]; test animals of tolerability study): no toxicity
Cc1ncc([N+](=O)[O-])n1CCO [Metronidazole, reference compound] | – | – | – | – | – | – | – | – | – | – | – | – | – | – | IC50 ([2]; Homo sapiens, NFF, mean ± SD, read-out: IC50 NFF): > 75000 nM; clinical failure rates (Giardia infections): 40–70%
CCCSc1ccc2nc(NC(=O)OC)[nH]c2c1 [Albendazole] | – | – | – | – | – | – | – | – | – | – | – | – | – | – | treatment efficacy rates (Giardia infections): 25–90%
Cc1nn(-c2ccccc2)c2sc(C(=O)N3CCCCC3)cc12 [SN00783575, O=C(N1CCCCC1)c1cc2c(C)nn(c3ccccc3)c2s1] | > 10000 nM | – | -4.12% | 34% | 8.3% | 21.1% | 63.8% | 15.4% | 39.6% | > 10000 nM | 26.9 ± 2.5% | 15.1% | 6.02% | 16.3% | –
CCc1nnc2c3ccccc3nc(N3CCN(c4cccc(Cl)c4)CC3)n12 [SN00788523, CCc1nnc2n1c(nc1ccccc21)N1CCN(CC1)c1cccc(Cl)c1] | > 10000 nM | > 2 | 2.37% | 38.2% | 28.9% | 33.6% | 65.8% | 80.4% | 73.1% | 6910 nM | -0.2 ± 22.2% | 1.85% | 1.08% | 22.1% | inhibition at 10 µM ([1]; Giardia duodenalis, read-out: % inhibition @ 10µM 48h (comment), Table S2 comment, 10 µM, 48 h): 44%
Cn1nccc1-c1cccc(-c2noc(-c3cccc(F)c3)n2)c1 [SN00798315, Fc1cccc(c1)c1onc(n1)c1cccc(c1)c1ccnn1C] | > 10000 nM | > 4 | 2.55% | 24.1% | 11.1% | 17.6% | 66.9% | 61.2% | 64% | 4740 ± 6400 nM | -9 ± 1.9% | 1.7% | 1.07% | 9.56% | –
